The numbers were not newly measured in US20060006323A1, “Method and an apparatus for evaluating toxicity of chemical agents” (priority 2004, published 2006), which cites them from elsewhere.

The target in the first series is T1, AhR (Homo sapiens, UniProt P35869).
T1 sequence (P35869 11-848): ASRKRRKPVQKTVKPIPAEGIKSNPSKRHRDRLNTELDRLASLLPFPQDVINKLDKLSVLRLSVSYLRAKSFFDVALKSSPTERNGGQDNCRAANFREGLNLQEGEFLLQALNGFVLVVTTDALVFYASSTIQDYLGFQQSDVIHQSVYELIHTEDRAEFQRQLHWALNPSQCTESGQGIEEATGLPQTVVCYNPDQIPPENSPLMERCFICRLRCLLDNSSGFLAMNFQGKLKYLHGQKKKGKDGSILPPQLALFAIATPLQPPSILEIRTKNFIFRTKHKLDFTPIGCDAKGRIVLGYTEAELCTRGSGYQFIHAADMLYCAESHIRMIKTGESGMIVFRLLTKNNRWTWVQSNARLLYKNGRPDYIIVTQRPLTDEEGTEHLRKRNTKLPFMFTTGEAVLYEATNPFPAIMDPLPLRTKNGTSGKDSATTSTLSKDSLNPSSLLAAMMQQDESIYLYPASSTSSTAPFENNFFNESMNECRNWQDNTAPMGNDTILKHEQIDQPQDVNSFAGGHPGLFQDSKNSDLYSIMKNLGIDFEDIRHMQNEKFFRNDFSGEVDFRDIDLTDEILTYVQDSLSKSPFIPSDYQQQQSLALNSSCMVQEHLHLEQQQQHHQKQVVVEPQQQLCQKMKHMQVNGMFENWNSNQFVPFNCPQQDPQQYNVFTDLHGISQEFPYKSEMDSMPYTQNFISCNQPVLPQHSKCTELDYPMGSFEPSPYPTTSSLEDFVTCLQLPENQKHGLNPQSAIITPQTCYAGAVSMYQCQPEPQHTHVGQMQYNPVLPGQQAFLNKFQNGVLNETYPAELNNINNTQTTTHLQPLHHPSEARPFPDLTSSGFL
The following applies: published by Matsui et al. 2002, HPLC bioassay; cited from earlier work.
With `O=C1/C(=C2\Nc3ccccc3C2=O)Nc2ccccc21` [indigo], the “affinity with AhR” value is “strong affinity”.

Test system in another series: not given
As to conditions: toxicity intensity relative to 2,3,7,8-TCDD set to be 1; cited from earlier work.
As for `Clc1cc2c(cc1Cl)Oc1c(Cl)c(Cl)c(Cl)c(Cl)c1O2` [1,2,3,4,7,8-HxCDD], the WHO-TEF was 0.1.

Turning to `Clc1cc2c(c(Cl)c1Cl)Oc1cc(Cl)c(Cl)c(Cl)c1O2` [1,2,3,6,7,8-HxCDD], the WHO-TEF is recorded as 0.1. On to `Clc1cc2c(c(Cl)c1Cl)Oc1c(cc(Cl)c(Cl)c1Cl)O2` [1,2,3,7,8,9-HxCDD], for which the WHO-TEF is recorded as 0.1. For `Clc1cc2c(cc1Cl)Oc1c(cc(Cl)c(Cl)c1Cl)O2` [1,2,3,7,8-PeCDD], the WHO-TEF is reported as 1. As to `Clc1cc2c(cc1Cl)Oc1cc(Cl)c(Cl)cc1O2` [2,3,7,8-TCDD], the WHO-TEF is recorded as 1. With `Clc1c(Cl)c(Cl)c2c(c1Cl)Oc1c(Cl)c(Cl)c(Cl)c(Cl)c1O2` [OCDD], the WHO-TEF is 0.0001.

Test system in another series: not given
The following applies: reported toxicity; cited from earlier work.
Regarding `Clc1c(Cl)c(Cl)c2c(c1Cl)Oc1ccccc1O2` [1,2,3,4-TCDD], the toxicity entry is “without any reported toxicity”.

For `O=C1/C(=C2\Nc3ccccc3C2=O)Nc2ccccc21` [indigo], the toxicity result was “comparatively low”.
